# Earlier results, collected in EP4789665A1, “TREATMENT OF HIS HYPORESPONDERS” (NewAmsterdam Pharma B.V., priority 2021, dated 2023).
# Where two headings read alike, the source gives them in different places.
# Biological target: T1, CETP (Homo sapiens, UniProt P11597)
# T1 construct: endogenous in cells; host or cells: trial patients (in vivo, circulating plasma CETP)
# T1 sequence (P11597 18-493): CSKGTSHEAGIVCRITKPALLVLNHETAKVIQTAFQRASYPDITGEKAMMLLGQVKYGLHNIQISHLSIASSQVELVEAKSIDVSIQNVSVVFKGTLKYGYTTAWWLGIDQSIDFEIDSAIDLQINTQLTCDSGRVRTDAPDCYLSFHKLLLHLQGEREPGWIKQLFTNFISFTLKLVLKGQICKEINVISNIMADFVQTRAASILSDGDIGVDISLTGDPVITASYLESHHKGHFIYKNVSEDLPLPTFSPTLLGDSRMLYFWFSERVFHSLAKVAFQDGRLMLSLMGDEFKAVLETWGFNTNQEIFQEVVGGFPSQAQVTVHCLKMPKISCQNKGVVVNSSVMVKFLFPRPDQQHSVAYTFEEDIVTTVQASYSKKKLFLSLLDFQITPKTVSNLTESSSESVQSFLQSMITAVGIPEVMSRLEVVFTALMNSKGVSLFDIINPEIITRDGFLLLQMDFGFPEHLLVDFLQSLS
# Conditions: TULIP, cited from earlier work
compound,measurement,setting,value
"CCOC(=O)N1c2ccc(C(F)(F)F)cc2[C@@H](N(Cc2cc(C(F)(F)F)cc(C(F)(F)F)c2)c2ncc(OCCCC(=O)O)cn2)C[C@H]1CC [Obicetrapib, (2R,4S)-4-{[3,5-bis(trifluoromethyl)benzyl]-[5-(3-carboxypropoxy)pyrimidin-2-yl]amino}-2-ethyl-6-trifluoromethyl-3,4-dihydro-2H-quinoline-1-carboxylic acid ethyl ester]",LDL-C reductions,"1 mg for 12 weeks, mild dyslipidemia",27%
same,LDL-C reductions,"2.5 mg for 12 weeks, mild dyslipidemia",33%
same,LDL-C reductions,"5 mg for 12 weeks, mild dyslipidemia",45%
same,incremental LDL-C reduction compared with statin monotherapy,"10 mg daily with 20 mg atorvastatin or 10 mg rosuvastatin, 12 weeks",up to 50%
same,LDL-C reductions,"10 mg for 12 weeks, mild dyslipidemia",45%
same,LDL-C reductions,10 mg obicetrapib plus 10 mg rosuvastatin,63%
same,LDL-C reductions,10 mg obicetrapib plus 20 mg atorvastatin,68%
